Legend:
Assay type in all cases: biochemical
PI3Kγ = molecular target: T1, PI3Kγ (Homo sapiens, UniProt P48736); assay: TR-FRET enzymatic activity assay, PI3Kγ; settings: recombinant heterodimeric PI3Kγ 2 nM, 2× Km ATP, 30 minutes at 25°C
T1 construct: made in house
Procedure, shortened: (§1)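 Each PI3K isoform is tested in an enzymatic format. Signal comes from time-resolved fluorescence energy transfer.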

PI3Kδ = molecular target: T2, PI3Kδ (Homo sapiens, UniProt O00329); assay: TR-FRET enzymatic activity assay, PI3Kδ; settings: recombinant heterodimeric PI3Kδ 25-50 pM, 2× Km ATP, 30 minutes at 25°C
T2 construct: made in house
T2 sequence (O00329 whole entry): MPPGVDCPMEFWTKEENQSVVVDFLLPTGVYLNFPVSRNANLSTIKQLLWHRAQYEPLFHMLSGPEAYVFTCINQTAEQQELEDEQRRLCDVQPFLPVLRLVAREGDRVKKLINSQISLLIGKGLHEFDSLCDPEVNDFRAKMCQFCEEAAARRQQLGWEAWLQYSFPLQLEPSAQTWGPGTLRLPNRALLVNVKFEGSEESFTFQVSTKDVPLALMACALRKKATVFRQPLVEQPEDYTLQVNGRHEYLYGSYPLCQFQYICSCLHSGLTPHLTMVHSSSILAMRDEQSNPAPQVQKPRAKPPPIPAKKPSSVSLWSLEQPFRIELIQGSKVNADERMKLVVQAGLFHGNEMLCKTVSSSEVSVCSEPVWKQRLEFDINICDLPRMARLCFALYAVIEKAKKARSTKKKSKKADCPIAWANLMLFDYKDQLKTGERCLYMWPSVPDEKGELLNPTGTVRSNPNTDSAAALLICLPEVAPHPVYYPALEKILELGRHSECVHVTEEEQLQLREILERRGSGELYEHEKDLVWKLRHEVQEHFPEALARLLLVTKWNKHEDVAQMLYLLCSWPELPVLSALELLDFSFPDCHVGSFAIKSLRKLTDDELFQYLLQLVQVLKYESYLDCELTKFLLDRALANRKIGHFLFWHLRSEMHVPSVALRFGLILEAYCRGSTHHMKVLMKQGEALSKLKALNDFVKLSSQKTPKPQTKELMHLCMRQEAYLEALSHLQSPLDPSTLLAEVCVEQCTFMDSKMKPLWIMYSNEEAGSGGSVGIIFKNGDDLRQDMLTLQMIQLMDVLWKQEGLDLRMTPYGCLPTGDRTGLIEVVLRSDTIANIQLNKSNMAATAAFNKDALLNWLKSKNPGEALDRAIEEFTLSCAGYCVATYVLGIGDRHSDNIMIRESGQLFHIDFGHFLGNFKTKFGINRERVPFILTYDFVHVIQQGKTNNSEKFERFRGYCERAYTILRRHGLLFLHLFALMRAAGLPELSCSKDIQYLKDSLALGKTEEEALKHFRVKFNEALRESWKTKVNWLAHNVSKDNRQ
T2 sequence (P27986 whole entry partner): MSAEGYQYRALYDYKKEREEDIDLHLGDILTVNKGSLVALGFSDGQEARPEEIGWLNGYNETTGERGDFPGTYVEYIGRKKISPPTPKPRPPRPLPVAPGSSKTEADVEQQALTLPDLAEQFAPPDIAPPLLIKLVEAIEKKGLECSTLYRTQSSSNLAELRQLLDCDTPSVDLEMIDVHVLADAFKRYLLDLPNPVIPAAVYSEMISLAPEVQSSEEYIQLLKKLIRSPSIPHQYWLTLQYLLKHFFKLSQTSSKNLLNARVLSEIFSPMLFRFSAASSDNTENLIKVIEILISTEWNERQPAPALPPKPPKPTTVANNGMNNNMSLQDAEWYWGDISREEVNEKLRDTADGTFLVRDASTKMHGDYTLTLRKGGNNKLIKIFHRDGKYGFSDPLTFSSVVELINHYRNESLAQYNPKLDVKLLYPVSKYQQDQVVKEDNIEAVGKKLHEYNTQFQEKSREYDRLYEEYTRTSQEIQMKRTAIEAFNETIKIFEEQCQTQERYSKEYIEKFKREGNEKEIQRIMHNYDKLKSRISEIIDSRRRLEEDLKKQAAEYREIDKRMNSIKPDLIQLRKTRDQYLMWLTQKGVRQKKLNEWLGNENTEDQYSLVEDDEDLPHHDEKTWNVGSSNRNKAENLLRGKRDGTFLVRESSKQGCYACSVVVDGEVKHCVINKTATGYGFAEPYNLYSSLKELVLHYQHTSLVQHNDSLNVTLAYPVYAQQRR
Procedure, shortened: as §1

PI3Kβ = molecular target: T3, PI3Kβ (Homo sapiens, UniProt P42338); assay: TR-FRET enzymatic activity assay, PI3Kβ; settings: recombinant heterodimeric PI3Kβ 25-50 pM, 2× Km ATP, 30 minutes at 25°C
T3 construct: made in house
T3 sequence (P42338 whole entry): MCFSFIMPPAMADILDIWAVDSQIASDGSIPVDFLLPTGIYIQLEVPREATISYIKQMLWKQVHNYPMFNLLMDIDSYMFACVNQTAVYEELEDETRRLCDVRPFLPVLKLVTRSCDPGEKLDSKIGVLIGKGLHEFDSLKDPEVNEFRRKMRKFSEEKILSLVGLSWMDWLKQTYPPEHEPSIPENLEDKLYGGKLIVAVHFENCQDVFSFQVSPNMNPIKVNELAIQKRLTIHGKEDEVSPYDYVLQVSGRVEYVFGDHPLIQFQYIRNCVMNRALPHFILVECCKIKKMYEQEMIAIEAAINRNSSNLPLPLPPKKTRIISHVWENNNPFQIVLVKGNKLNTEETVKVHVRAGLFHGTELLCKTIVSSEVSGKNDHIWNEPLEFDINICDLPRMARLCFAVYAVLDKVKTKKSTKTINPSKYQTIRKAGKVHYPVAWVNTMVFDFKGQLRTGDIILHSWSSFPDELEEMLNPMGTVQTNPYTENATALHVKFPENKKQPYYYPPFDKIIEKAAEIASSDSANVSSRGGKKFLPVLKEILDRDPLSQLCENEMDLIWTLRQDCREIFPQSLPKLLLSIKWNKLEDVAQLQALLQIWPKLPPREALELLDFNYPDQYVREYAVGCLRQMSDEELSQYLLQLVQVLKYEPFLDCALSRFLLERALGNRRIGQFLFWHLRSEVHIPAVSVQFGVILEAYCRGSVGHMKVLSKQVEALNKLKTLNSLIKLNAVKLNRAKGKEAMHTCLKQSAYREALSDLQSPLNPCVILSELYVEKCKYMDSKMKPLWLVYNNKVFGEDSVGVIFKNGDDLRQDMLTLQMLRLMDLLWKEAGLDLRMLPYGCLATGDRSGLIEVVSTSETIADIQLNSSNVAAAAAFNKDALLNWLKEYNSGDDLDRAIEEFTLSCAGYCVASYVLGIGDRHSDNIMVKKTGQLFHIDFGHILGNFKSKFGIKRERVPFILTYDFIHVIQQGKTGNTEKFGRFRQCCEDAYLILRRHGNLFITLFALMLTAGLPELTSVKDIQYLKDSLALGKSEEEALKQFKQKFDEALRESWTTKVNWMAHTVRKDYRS
T3 sequence (P27986 whole entry partner): as the sequence (P27986 whole entry partner) above
Procedure, shortened: as §1

T1 sequence (P48736 whole entry): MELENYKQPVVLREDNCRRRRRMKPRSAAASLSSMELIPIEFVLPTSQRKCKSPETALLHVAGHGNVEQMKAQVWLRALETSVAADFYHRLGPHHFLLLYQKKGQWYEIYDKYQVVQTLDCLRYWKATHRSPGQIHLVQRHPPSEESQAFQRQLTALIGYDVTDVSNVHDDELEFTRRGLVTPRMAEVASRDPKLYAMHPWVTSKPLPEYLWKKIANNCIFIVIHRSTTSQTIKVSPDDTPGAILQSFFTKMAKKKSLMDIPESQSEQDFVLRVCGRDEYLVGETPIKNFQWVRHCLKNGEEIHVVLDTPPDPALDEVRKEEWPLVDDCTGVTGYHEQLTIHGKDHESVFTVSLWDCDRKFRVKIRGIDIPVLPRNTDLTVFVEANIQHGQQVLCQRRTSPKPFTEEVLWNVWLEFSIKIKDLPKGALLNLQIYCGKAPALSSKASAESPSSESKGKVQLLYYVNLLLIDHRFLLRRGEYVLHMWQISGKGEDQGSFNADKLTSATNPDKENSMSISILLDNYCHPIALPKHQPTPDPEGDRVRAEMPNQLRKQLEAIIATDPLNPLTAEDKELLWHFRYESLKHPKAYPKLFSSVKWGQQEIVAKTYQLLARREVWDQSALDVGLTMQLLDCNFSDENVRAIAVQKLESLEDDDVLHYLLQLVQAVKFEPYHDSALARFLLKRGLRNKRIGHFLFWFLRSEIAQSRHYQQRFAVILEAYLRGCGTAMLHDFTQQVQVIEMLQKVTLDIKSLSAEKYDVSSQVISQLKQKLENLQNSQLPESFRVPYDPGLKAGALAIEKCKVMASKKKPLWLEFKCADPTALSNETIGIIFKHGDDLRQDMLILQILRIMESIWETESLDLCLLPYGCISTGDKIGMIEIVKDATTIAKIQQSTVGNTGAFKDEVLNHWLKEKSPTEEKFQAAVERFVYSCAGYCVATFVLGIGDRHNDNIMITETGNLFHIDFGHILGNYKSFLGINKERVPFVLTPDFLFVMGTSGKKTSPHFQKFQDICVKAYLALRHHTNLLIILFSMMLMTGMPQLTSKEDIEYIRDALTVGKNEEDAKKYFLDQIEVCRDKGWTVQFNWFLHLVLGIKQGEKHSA
T1 sequence (Q8WYR1 whole entry partner): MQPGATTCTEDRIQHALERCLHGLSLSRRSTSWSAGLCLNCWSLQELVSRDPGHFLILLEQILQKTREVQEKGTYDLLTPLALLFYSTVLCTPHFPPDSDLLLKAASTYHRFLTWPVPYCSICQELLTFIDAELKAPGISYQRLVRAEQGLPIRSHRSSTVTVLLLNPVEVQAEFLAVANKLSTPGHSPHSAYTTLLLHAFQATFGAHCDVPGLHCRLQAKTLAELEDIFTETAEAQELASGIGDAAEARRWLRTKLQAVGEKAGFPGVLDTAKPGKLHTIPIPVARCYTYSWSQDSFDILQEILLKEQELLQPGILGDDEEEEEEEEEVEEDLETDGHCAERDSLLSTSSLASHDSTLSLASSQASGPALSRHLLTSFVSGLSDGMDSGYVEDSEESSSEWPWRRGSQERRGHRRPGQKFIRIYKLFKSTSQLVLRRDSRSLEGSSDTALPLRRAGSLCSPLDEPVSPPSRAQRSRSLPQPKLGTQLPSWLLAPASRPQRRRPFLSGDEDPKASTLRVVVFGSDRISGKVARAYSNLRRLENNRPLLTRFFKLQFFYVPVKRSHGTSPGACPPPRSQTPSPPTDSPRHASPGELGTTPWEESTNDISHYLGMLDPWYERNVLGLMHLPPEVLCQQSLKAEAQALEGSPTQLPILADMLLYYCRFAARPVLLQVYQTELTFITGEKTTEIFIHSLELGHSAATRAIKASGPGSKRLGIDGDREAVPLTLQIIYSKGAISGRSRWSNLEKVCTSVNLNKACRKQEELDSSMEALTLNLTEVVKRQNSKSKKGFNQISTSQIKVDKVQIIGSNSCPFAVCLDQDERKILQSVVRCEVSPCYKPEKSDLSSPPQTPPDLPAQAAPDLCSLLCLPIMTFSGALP

IC50 (PI3Kγ)	IC50 (PI3Kδ)	IC50 (PI3Kβ)	SMILES
1300 nM	15 nM	970 nM	C[C@H](Nc1nc(N)nc(N)c1C#N)c1nc2cccc(Cl)c2c(=O)n1C1CCN(CC(F)(F)F)CC1 [Compound 100, (S)-2,4-diamino-6-((1-(5-chloro-4-oxo-3-(1-(2,2,2-trifluoroethyl)piperidin-4-yl)-3,4-dihydroquinazolin-2-yl)ethyl)amino)pyrimidine-5-carbonitrile]
2600 nM	1 nM	2 nM	Cc1nc(N)nc(N[C@H](c2nc3cccc(Cl)c3c(=O)n2N2CCNCC2)C2CC2)c1C#N [Compound 46, (S)-2-amino-4-(((5-chloro-4-oxo-3-(piperazin-1-yl)-3,4-dihydroquinazolin-2-yl)(cyclopropyl)methyl)amino)-6-methylpyrimidine-5-carbonitrile]
1600 nM	14 nM	720 nM	C[C@H](Nc1nc(N)nc(N)c1C#N)c1nc2cccc(Cl)c2c(=O)n1C1CCN(CC(F)F)CC1 [Compound 99, (S)-2,4-diamino-6-((1-(5-chloro-3-(1-(2,2-difluoroethyl)piperidin-4-yl)-4-oxo-3,4-dihydroquinazolin-2-yl)ethyl)amino)pyrimidine-5-carbonitrile]

More lines, now with the values behind:

SMILES	IC50 (PI3Kγ)	IC50 (PI3Kδ)	IC50 (PI3Kβ)
C[C@H](Nc1ncnc2scnc12)c1nc2cccc(Cl)c2c(=O)n1C1CCNCC1 [Compound 18, (S)-5-chloro-3-(piperidin-4-yl)-2-(1-(thiazolo[5,4-d]pyrimidin-7-ylamino)ethyl)quinazolin-4(3H)-one]	> 10000 nM	9 nM	63 nM
C[C@H](Nc1nc(N)nc(N)c1Cl)c1nc2cccc(Cl)c2c(=O)n1C1CCNCC1 [Compound 25, (S)-5-chloro-2-(1-((2,6-diamino-5-chloropyrimidin-4-yl)amino)ethyl)-3-(piperidin-4-yl)quinazolin-4(3H)-one]	> 10000 nM	25 nM	100 nM

From patent publication EP3154958B1, “PHOSPHATIDYLINOSITOL 3-KINASE INHIBITORS” (Gilead Sciences, Inc., priority 2014, dated 2015)
